# Reference: patent US20210254272A1, “TEXTILES HAVING ANTIMICROBIAL PROPERTIES” (Livinguard AG, priority 2015, published 2021)
# Tested on: E. coli (ATCC 25922)
# Assay: AATCC Test Method 100-2012 antibacterial activity of the treated textile, after 25 washes and 12 abrasion cycles, contact time 60 minutes
# Assay type: cell-based
# Conditions: for Performance Test-Log reduction of antimicrobial performance: pad process, 2 min
# Description: The antibacterial activity of the textile was tested in accordance with AATCC Test Method 100-2012. Prior to the test, the fabric was cut into coupons of 2×4 inches and washed separately 25 times, and exposed to 12 abrasion cycles, as per US EPA protocol 90072PA4 (described further below). The tests were made against E. coli (ATCC 25922). Contact time was 60 minutes, after inoculating with 10^8 CFU per coupon.
substance,measurement,setting,value
Silver,Performance Test-Log reduction of antimicrobial performance,"single agent 5 gm/lit, curing 180° C.",1.11 Log
same,Performance Test-Log reduction of antimicrobial performance,"single agent 10 gm/lit, curing 120° C.",0.37 Log
same,Performance Test-Log reduction of antimicrobial performance,"single agent 10 gm/lit, curing 140° C.",0.48 Log
same,Performance Test-Log reduction of antimicrobial performance,"single agent 10 gm/lit, curing 150° C.",0.58 Log
same,Performance Test-Log reduction of antimicrobial performance,"single agent 10 gm/lit, curing 160° C.",0.95 Log
same,Performance Test-Log reduction of antimicrobial performance,"single agent 10 gm/lit, curing 180° C.",2.11 Log
same,Log reduction of antimicrobial performance,"pure cotton fabric, exhaust 80° C., 60 min, dosage 0.1% o.w.f",0.55 Log
same,Log reduction of antimicrobial performance,"pure cotton fabric, exhaust 80° C., 60 min, dosage 0.2% o.w.f",1.35 Log
same,Log reduction of antimicrobial performance,"pure cotton fabric, exhaust 80° C., 60 min, dosage 0.5% o.w.f",1.67 Log
same,Log reduction of antimicrobial performance,"pure cotton fabric, exhaust 80° C., 60 min, dosage 0.8% o.w.f",1.84 Log
same,Log reduction of antimicrobial performance,"pure cotton fabric, exhaust 80° C., 60 min, dosage 1.0% o.w.f",2.87 Log
same,Log reduction of antimicrobial performance,"pure cotton, exhaust 80° C., 1% o.w.f, 60 min, curing 180° C., curing dwell time 0.5 min",0.4 Log
same,Log reduction of antimicrobial performance,"pure cotton, exhaust 80° C., 1% o.w.f, 60 min, curing 180° C., curing dwell time 1.0 min",0.6 Log
same,Log reduction of antimicrobial performance,"pure cotton, exhaust 80° C., 1% o.w.f, 60 min, curing 180° C., curing dwell time 1.5 min",1.4 Log
same,Log reduction of antimicrobial performance,"pure cotton, exhaust 80° C., 1% o.w.f, 60 min, curing 180° C., curing dwell time 2.0 min",2.9 Log
same,Log reduction of antimicrobial performance,"pure cotton, exhaust 80° C., 1% o.w.f, 60 min, curing 180° C., curing dwell time 2.5 min",2.2 Log
same,Log reduction of antimicrobial performance,"pure cotton, exhaust 80° C., 1% o.w.f, 60 min, curing 180° C., curing dwell time 3.0 min",1.2 Log
same,Log reduction of antimicrobial performance,"pure polyester fabric, exhaust 80° C., 60 min, curing 180° C., curing dwell time 0.5 min",0.5 Log
same,Log reduction of antimicrobial performance,"pure polyester fabric, exhaust 80° C., 60 min, curing 180° C., curing dwell time 1.0 min",0.9 Log
same,Log reduction of antimicrobial performance,"pure polyester fabric, exhaust 80° C., 60 min, curing 180° C., curing dwell time 1.5 min",1.4 Log
same,Log reduction of antimicrobial performance,"pure polyester fabric, exhaust 80° C., 60 min, curing 180° C., curing dwell time 2.0 min",2.68 Log
same,Log reduction of antimicrobial performance,"pure polyester fabric, exhaust 80° C., 60 min, curing 180° C., curing dwell time 2.5 min",2.21 Log
same,Log reduction of antimicrobial performance,"pure polyester fabric, exhaust 80° C., 60 min, curing 180° C., curing dwell time 3.0 min",1.2 Log
same,Log reduction of antimicrobial performance,"pure polyester fabric, exhaust 80° C., 60 min, dosage 0.1% o.w.f",0.55 Log
same,Log reduction of antimicrobial performance,"pure polyester fabric, exhaust 80° C., 60 min, dosage 0.2% o.w.f",1.43 Log
same,Log reduction of antimicrobial performance,"pure polyester fabric, exhaust 80° C., 60 min, dosage 0.5% o.w.f",1.78 Log
same,Log reduction of antimicrobial performance,"pure polyester fabric, exhaust 80° C., 60 min, dosage 0.8% o.w.f",1.83 Log
same,Log reduction of antimicrobial performance,"pure polyester fabric, exhaust 80° C., 60 min, dosage 1.0% o.w.f",2.67 Log
same,Log reduction of antimicrobial performance,"solution dosage 0.10% o.w.f, exhaust temperature 40° C., process time 60 min",0 Log
same,Log reduction of antimicrobial performance,"solution dosage 0.10% o.w.f, exhaust temperature 60° C., process time 60 min",0 Log
same,Log reduction of antimicrobial performance,"solution dosage 0.10% o.w.f, exhaust temperature 65° C., process time 60 min",0 Log
same,Log reduction of antimicrobial performance,"solution dosage 0.10% o.w.f, exhaust temperature 70° C., process time 60 min",0 Log
same,Log reduction of antimicrobial performance,"solution dosage 0.10% o.w.f, exhaust temperature 75° C., process time 60 min",0.21 Log
same,Log reduction of antimicrobial performance,"solution dosage 0.10% o.w.f, exhaust temperature 80° C., process time 60 min",0.53 Log
same,Log reduction of antimicrobial performance,"solution dosage 0.10% o.w.f, exhaust temperature 85° C., process time 60 min",0.67 Log
same,Log reduction of antimicrobial performance,"solution dosage 0.10% o.w.f, exhaust temperature 90° C., process time 60 min",0.68 Log
same,Log reduction of antimicrobial performance,"solution dosage 0.10% o.w.f, exhaust temperature 95° C., process time 60 min",0.68 Log
same,Log reduction of antimicrobial performance,"solution dosage 0.20% o.w.f, exhaust temperature 40° C., process time 60 min",0 Log
same,Log reduction of antimicrobial performance,"solution dosage 0.20% o.w.f, exhaust temperature 60° C., process time 60 min",0.11 Log
same,Log reduction of antimicrobial performance,"solution dosage 0.20% o.w.f, exhaust temperature 65° C., process time 60 min",0.12 Log
same,Log reduction of antimicrobial performance,"solution dosage 0.20% o.w.f, exhaust temperature 70° C., process time 60 min",0.17 Log
same,Log reduction of antimicrobial performance,"solution dosage 0.20% o.w.f, exhaust temperature 75° C., process time 60 min",0.87 Log
same,Log reduction of antimicrobial performance,"solution dosage 0.20% o.w.f, exhaust temperature 80° C., process time 60 min",1.32 Log
same,Log reduction of antimicrobial performance,"solution dosage 0.20% o.w.f, exhaust temperature 85° C., process time 60 min",1.45 Log
same,Log reduction of antimicrobial performance,"solution dosage 0.20% o.w.f, exhaust temperature 90° C., process time 60 min",1.46 Log
same,Log reduction of antimicrobial performance,"solution dosage 0.20% o.w.f, exhaust temperature 95° C., process time 60 min",1.46 Log
same,Log reduction of antimicrobial performance,"solution dosage 0.50% o.w.f, exhaust temperature 40° C., process time 60 min",0 Log
same,Log reduction of antimicrobial performance,"solution dosage 0.50% o.w.f, exhaust temperature 60° C., process time 60 min",0.23 Log
same,Log reduction of antimicrobial performance,"solution dosage 0.50% o.w.f, exhaust temperature 65° C., process time 60 min",0.13 Log
same,Log reduction of antimicrobial performance,"solution dosage 0.50% o.w.f, exhaust temperature 70° C., process time 60 min",0.18 Log
same,Log reduction of antimicrobial performance,"solution dosage 0.50% o.w.f, exhaust temperature 75° C., process time 60 min",1.05 Log
same,Log reduction of antimicrobial performance,"solution dosage 0.50% o.w.f, exhaust temperature 80° C., process time 60 min",1.56 Log
same,Log reduction of antimicrobial performance,"solution dosage 0.50% o.w.f, exhaust temperature 85° C., process time 60 min",1.76 Log
same,Log reduction of antimicrobial performance,"solution dosage 0.50% o.w.f, exhaust temperature 90° C., process time 60 min",1.78 Log
same,Log reduction of antimicrobial performance,"solution dosage 0.50% o.w.f, exhaust temperature 95° C., process time 60 min",1.78 Log
same,Log reduction of antimicrobial performance,"solution dosage 0.80% o.w.f, exhaust temperature 40° C., process time 60 min",0 Log
same,Log reduction of antimicrobial performance,"solution dosage 0.80% o.w.f, exhaust temperature 60° C., process time 60 min",0.36 Log
same,Log reduction of antimicrobial performance,"solution dosage 0.80% o.w.f, exhaust temperature 65° C., process time 60 min",0.37 Log
same,Log reduction of antimicrobial performance,"solution dosage 0.80% o.w.f, exhaust temperature 70° C., process time 60 min",0.42 Log
same,Log reduction of antimicrobial performance,"solution dosage 0.80% o.w.f, exhaust temperature 75° C., process time 60 min",1.13 Log
same,Log reduction of antimicrobial performance,"solution dosage 0.80% o.w.f, exhaust temperature 80° C., process time 60 min",1.84 Log
same,Log reduction of antimicrobial performance,"solution dosage 0.80% o.w.f, exhaust temperature 85° C., process time 60 min",1.94 Log
same,Log reduction of antimicrobial performance,"solution dosage 0.80% o.w.f, exhaust temperature 90° C., process time 60 min",1.95 Log
same,Log reduction of antimicrobial performance,"solution dosage 0.80% o.w.f, exhaust temperature 95° C., process time 60 min",1.95 Log
same,Log reduction of antimicrobial performance,"solution dosage 1.00% o.w.f, exhaust temperature 40° C., process time 60 min",0 Log
same,Log reduction of antimicrobial performance,"solution dosage 1.00% o.w.f, exhaust temperature 60° C., process time 60 min",0.41 Log
same,Log reduction of antimicrobial performance,"solution dosage 1.00% o.w.f, exhaust temperature 65° C., process time 60 min",0.42 Log
same,Log reduction of antimicrobial performance,"solution dosage 1.00% o.w.f, exhaust temperature 70° C., process time 60 min",0.52 Log
same,Log reduction of antimicrobial performance,"solution dosage 1.00% o.w.f, exhaust temperature 75° C., process time 60 min",1.23 Log
same,Log reduction of antimicrobial performance,"solution dosage 1.00% o.w.f, exhaust temperature 80° C., process time 60 min",2.78 Log
same,Log reduction of antimicrobial performance,"solution dosage 1.00% o.w.f, exhaust temperature 85° C., process time 60 min",2.85 Log
same,Log reduction of antimicrobial performance,"solution dosage 1.00% o.w.f, exhaust temperature 90° C., process time 60 min",2.86 Log
same,Log reduction of antimicrobial performance,"solution dosage 1.00% o.w.f, exhaust temperature 95° C., process time 60 min",2.86 Log
